Read-outs that look alike come from different tables or passages of the source.
Tests used:
[1] = system: K. pneumoniae; experiment: Broth microdilution MIC (Example 5); format: cell-based, Klebsiella pneumoniae; conditions: Klebsiella pneumoniae
Experimental: (§1) Test and Comparator Agents: The test agents were stored at room temperature until assayed. […] The stock solutions were allowed to stand for at least 1 hr prior to use to auto-sterilize.
(§2) TestMedia: Test media were prepared and stored in accordance with guidelines from CLSI (4, 6, 7).
(§3) Broth Microdilution MC Testing (Aerobic Bacteria and Yeast): The broth microdilution assay method employed for the susceptibility testing of aerobic bacteria (excluding N. gonorrhoeae which was evaluated by agar dilution) and yeast essentially followed the procedures described by CLSI (3, 4, 7, 8) and employed automated liquid handlers to conduct serial dilutions and liquid transfers. […] These would become the ‘mother plates’ from which ‘daughter’ or test plates would be prepared. The drugs (300 μL at 40× the desired top concentration in the test plates) were dispensed into the appropriate well in Column 1 of the mother plates. The Biomek 2000 was used to make serial two-fold dilutions through Column 11 in the “mother plate”. The wells of Column 12 contained no drug and ultimately served as the organism growth control wells.
(§4) The daughter plates were prepared using the Biomek FX which transferred 5 μL of drug solution from each well of a mother plate to the corresponding well of the correct daughter plate in a single step.
(§5) A standardized inoculum of each organism was prepared per CLSI methods (3, 7). Isolated colonies of each test isolate were picked from the primary plate and a suspension was prepared to equal a 0.5 McFarland turbidity standard. Standardized suspensions were then diluted […] (1:100 for yeast, 1:20 for bacteria). After dilution, the inoculum suspensions were then transferred to compartments of sterile reservoirs divided by length (Beckman Coulter), and the Biomek 2000 was used to inoculate all plates. Daughter plates were placed on the Biomek 2000 in reverse orientation so that plates were inoculated from low to high drug concentration.
(§6) The Biomek 2000 delivered 10 μL of standardized inoculum into each well of the appropriate daughter plate for an additional 1:20 dilution.
(§7) Plates were stacked 4 high, covered with a lid on the top plate, placed into plastic bags, and incubated at 35° C. for approximately 24-48 hr for all yeast isolates and 16-24 hr for aerobic bacteria. Plates were viewed from the bottom using a plate viewer. […] MIC endpoints for the test agents and control compounds were read per CLSI criteria (3, 7).

[2] = system: anaerobes; experiment: MIC summary, anaerobes (Example 5); format: cell-based, Bacteroides fragilis and Clostridium difficile; conditions: read-out: MIC values across isolates
Experimental: Test and Comparator Agents: The test agents were stored at room temperature until assayed. All test agents were suspended and diluted in 100% dimethylsulfoxide (DMSO), and were ultimately tested at a final concentration of 0.06-64 μg/mL. The stock solutions were allowed to stand for at least 1 hr prior to use to auto-sterilize.
The susceptibility of anaerobic bacteria was determined by agar dilution using Brucella Agar (BD/BBL; Lot No. 5237692) supplemented with 5 μg/mL hemin (Sigma, St. Louis, MO; Lot No. 108K1088), 1 μg/mL Vitamin K1 and 5% (v/v) laked sheep blood (Cleveland Scientific, Bath, OH; Lot No. 322799).
Agar Dilution MIC Testing (Anaerobic Bacteria and Gonococci): MIC values for anaerobic bacteria were determined using a reference agar dilution method as described by CLSI (6). Organisms were grown at 35° C. in the Bactron II Anaerobic Chamber (Shel Lab, Cornelius, OR) for approximately 48 hr prior to the assay. Drug dilutions and drug-supplemented agar plates were prepared manually per CLSI (6). The plates were allowed to stand at room temperature for 1 hr to allow the agar surface to dry and pre-reduced for approximately 1 hr in the anaerobe chamber prior to inoculation. Each isolate was suspended to the equivalent of a 0.5 McFarland standard in Brucella broth using a turbidity meter (Dade Behring MicroScan, West Sacramento, CA). […] The MIC was read per CLSI guidelines (6).

[3] = system: E. coli; experiment: Broth microdilution MIC (Example 5); format: cell-based, Escherichia coli; conditions: Escherichia coli
Experimental: as §1, §2, §3, §4, §5, §6, §7

[4] = system: Achromobacter spp.; experiment: MIC against CF isolates (Example 7, Table 18); format: cell-based; conditions: strain AX4, A. xylosoxidans
[5] = system: E. coli ATCC 25922; conditions: per CLSI M100-S24 or provided by Microbion; cited from earlier work

Structure (SMILES)	MIC ([1]; K. pneumoniae MMX 4622, KPC-2) [µg/mL]	MIC ([1]; K. pneumoniae MMX 4623, KPC-2) [µg/mL]	MIC ([1]; K. pneumoniae MMX 4653, KPC-3) [µg/mL]	MIC ([1]; K. pneumoniae MMX 4683, KPC-2) [µg/mL]	MIC ([1]; K. pneumoniae MMX 4684, ESBL, read-out: MIC) [µg/mL]	MIC ([1]; K. pneumoniae MMX 4685, ESBL, read-out: MIC) [µg/mL]	MIC ([1]; K. pneumoniae MMX 4694, KPC-3) [µg/mL]	MIC ([1]; K. pneumoniae MMX 5979, NDM-1) [µg/mL]	MIC [2] [µg/mL]	MIC ([3]; ATCC25922, E. coli MMX 102 (ATCC 25922), QC, read-out: MIC) [µg/mL]	MIC ([3]; ATCCBAA2469, E. coli MMX 5980 (ATCC BAA-2469), NDM-1) [µg/mL]	MIC ([3]; E. coli MMX 8423, ESBL, LevR CAZR GmR, read-out: MIC) [µg/mL]	MIC ([3]; E. coli MMX 8424, ESBL, CAZR, read-out: MIC) [µg/mL]	MIC ([3]; E. coli MMX 8425, ESBL, LevR CAZR GmR, read-out: MIC) [µg/mL]	MIC [4] [µg/mL]	MIC, acceptable range [5] [µg/mL]	MIC, expected results [5] [µg/mL]
OCC(S)CS.[Bi] (centres unmarked) [MB-2B, bismuth-2,3-dimercaptopropanol]	16	32	16	8	32	8	8	16	2 to 16	2	2	2	4	2			
NCC[C@H](O)C(=O)N[C@@H]1C[C@H](N)[C@@H](O[C@H]2O[C@H](CN)[C@@H](O)[C@H](O)[C@H]2O)[C@H](O)[C@H]1O[C@H]1O[C@H](CO)[C@@H](O)[C@H](N)[C@H]1O [Amikacin]															> 64	0.5 to 4	1 to 2

Reference: patent publication US20240285571A1, “METHODS OF TREATING BONE INFECTIONS” (MICROBION CORPORATION, priority 2020, published 2024)
